Source: US4663309A, “Novel peptide hormones with calcitonin-like activity” (University Patents, Inc., priority 1985, dated 1987)
Bridge positions count the residues as written; N and C are the ends. Peptide text beside a SMILES is read from it.

Tested on: rat kidney adenylate cyclase
Experiment: Peptide stimulation of adenylate cyclase activity in crude kidney cortical membranes
Assay type: biochemical
Conditions: 10 min at 37° C.
Procedure: Crude rats brain membranes were prepared as described by Nakamuta et al., supra, using 250-300 gm male Sprague-Dawley rats (Charles River Breeding Laboratories). Membranes were either used immediately or stored at -80° C. for no more than three days. Crude rat kidney membranes used for binding studies and adenylate cyclase assays were prepared as described by Schwartz, K. E., R. C. Orlowski and R. Marcus, Endocrinology 108:831 (1981) with a minor modification. The dissected kidney cortices were first homogenized briefly with a Polytron™ (Brinkman Instruments) at low speed ("5") before complete homogenization with a loose-fitting Wheaton Dounce homogenizer (American Scientific Products, MacGaw Park, IL, pestle "B"). Protein concentrations were determined using Coomassie Brilliant Blue G-250 (Sedmak, J. J. and S. E. Grossberg, Anal. Biochem. 83:544 (1977)) and crystallized BSA (Sigma Chemical Co., St. Louis, MO) as the standard. All preparations of kidney membranes were carried out at 4° C. and the membranes were used immediately for binding studies or adenylate cyclase assays.
Peptide stimulation of adenylate cyclase activity in crude kidney cortical membranes was measured using methods described by Marcus, R. and G. D. Aurbach, Biochim. Biophys. Acta 242:410 (1971). […]

## CC(C)C[C@H](NC(=O)[C@H](CCCCN)NC(=O)[C@H](CCC(N)=O)NC(=O)[C@H](CC(C)C)NC(=O)[C@H](CCC(N)=O)NC(=O)[C@H](CCC(N)=O)NC(=O)[C@H](CC(C)C)NC(=O)[C@H](CC(C)C)NC(=O)[C@@H]1CSSC[C@H](N)C(=O)N[C@@H](CO)C(=O)N[C@@H](CC(N)=O)C(=O)N[C@@H](CC(C)C)C(=O)N[C@@H](CO)C(=O)N[C@@H]([C@@H](C)O)C(=O)N1)C(=O)N[C@@H](CC(C)C)C(=O)N[C@@H](CCC(N)=O)C(=O)N[C@@H](CCCCN)C(=O)N[C@@H](CC(C)C)C(=O)N[C@@H](CCCCN)C(=O)N[C@@H](CCC(N)=O)C(=O)N[C@@H](Cc1ccc(O)cc1)C(=O)N1CCC[C@H]1C(=O)N[C@@H](CCCNC(=N)N)C(=O)N[C@H](C(=O)N[C@@H](CC(N)=O)C(=O)N[C@H](C(=O)NCC(=O)N[C@@H](CO)C(=O)NCC(=O)N[C@H](C(=O)N1CCC[C@H]1C(N)=O)[C@@H](C)O)[C@@H](C)O)[C@@H](C)O [MCT-II] (H-CSNLSTCLLQQLQKLLQKLKQYPRTNTGSGTP-NH2; disulfide 1-7; N-terminus assumed)
  Stimulation of adenylate cyclase over basal activity: stimulated adenylate cyclase over basal activity
